# Source: ChEMBL document CHEMBL5126594, “Entry inhibition of hepatitis B virus using cyclosporin O derivatives with peptoid side chain incorporation” (Bioorg Med Chem, 2022)
# Square brackets hold non-standard residues; d marks the D form. Peptide text beside a SMILES is read from it. NMeL = CN[C@@H](CC(C)C)C(=O)O; NMeV = CN[C@H](C(=O)O)C(C)C; Nva = CCC[C@H](N)C(=O)O; Sar = CNCC(=O)O
# Columns and labels:
# Hepatitis B virus [1] = assay: Antiviral activity against Hepatitis B virus infected in human HepG2 cells expressing NTCP assessed as inhibition of viral entry by measuring intracellular HBV DNA at 1 uM preincubated with compound for 2 hrs followed by viral infection and measured after 3 hrs by qPCR analysis relative to control; format: functional; settings: time 5 hrs
# [2] = Cytotoxicity against human HepG2 cells assessed as reduction in cell viability incubated for 24 hrs by MTS assay; format: toxicity, cell-based; settings: read-out: LC50
# Hepatitis B virus [3] = assay: Antiviral activity against Hepatitis B virus infected in human HepG2 cells expressing NTCP assessed as inhibition of viral entry by measuring intracellular HBV DNA preincubated with compound for 2 hrs followed by viral infection and measured after 3 hrs by qPCR analysis; format: functional, organism-based
# CYP1A2 = molecular target: T1, CYP1A2 (Homo sapiens, UniProt P05177); assay: Inhibition of human CYP1A2 at 10 uM preincubated for 10 mins followed by NADPH addition and measured after 20 mins by luciferin reagent based luminescence analysis; format: ADME; settings: time 30 min
# T1 sequence (P05177 whole entry): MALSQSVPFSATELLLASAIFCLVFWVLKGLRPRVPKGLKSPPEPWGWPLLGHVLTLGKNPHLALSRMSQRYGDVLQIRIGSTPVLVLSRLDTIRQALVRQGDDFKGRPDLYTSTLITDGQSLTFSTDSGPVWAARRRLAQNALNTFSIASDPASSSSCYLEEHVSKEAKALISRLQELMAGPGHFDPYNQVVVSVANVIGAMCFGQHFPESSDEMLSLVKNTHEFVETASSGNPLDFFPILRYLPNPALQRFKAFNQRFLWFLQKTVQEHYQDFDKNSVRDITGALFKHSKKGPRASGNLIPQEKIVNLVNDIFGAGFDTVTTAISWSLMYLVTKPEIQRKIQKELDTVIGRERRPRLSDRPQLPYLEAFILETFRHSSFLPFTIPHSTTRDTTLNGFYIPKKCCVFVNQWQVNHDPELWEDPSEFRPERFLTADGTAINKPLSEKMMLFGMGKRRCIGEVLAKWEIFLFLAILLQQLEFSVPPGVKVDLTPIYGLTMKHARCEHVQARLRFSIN
# CYP2C9 = CYP2C9 (Homo sapiens, UniProt P11712); assay: Inhibition of human CYP2C9 at 10 uM preincubated for 10 mins followed by NADPH addition and measured after 20 mins by luciferin reagent based luminescence analysis; format: ADME; settings: time 30 min
# CYP2C9, sequence (P11712 whole entry): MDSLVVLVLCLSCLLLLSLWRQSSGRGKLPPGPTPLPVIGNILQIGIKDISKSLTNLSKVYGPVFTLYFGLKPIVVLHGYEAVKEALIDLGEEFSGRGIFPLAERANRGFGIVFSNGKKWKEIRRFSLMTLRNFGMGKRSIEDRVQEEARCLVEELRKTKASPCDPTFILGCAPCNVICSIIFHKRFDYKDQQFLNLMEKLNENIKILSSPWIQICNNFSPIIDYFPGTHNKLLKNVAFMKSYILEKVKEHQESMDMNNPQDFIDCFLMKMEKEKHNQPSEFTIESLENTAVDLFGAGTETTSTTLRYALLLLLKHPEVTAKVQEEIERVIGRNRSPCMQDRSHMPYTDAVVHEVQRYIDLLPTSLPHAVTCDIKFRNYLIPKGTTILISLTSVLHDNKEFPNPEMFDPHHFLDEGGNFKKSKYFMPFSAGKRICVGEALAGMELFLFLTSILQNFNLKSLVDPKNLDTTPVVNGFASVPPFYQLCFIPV
SMILES,inhibition at 1 µM (Hepatitis B virus [1]) [%],also measured
CCC[C@@H]1NC(=O)[C@H](CC(C)C)N(C)C(=O)[C@H](CC(C)C)N(C)C(=O)[C@H](CC(C)C)N(C)C(=O)[C@H](CC(C)C)N(C)C(=O)[C@@H](C)NC(=O)[C@@H](CCC(N)=O)NC(=O)[C@H](CC(C)C)N(C)C(=O)[C@H](C(C)C)NC(=O)CN(Cc2ccccc2)C(=O)CN(C)C1=O,36,
CCC[C@@H]1NC(=O)[C@H](CC(C)C)N(C)C(=O)[C@H](CC(C)C)N(C)C(=O)CN(CCC(=O)O)C(=O)[C@H](CC(C)C)N(C)C(=O)[C@@H](C)NC(=O)[C@@H](CCC(N)=O)NC(=O)[C@H](CC(C)C)N(C)C(=O)[C@H](C(C)C)NC(=O)[C@H](CC(C)C)N(C)C(=O)CN(C)C1=O,63,
CCC[C@@H]1NC(=O)[C@H](CC(C)C)N(C)C(=O)[C@H](CC(C)C)N(C)C(=O)[C@H](CC(C)C)N(C)C(=O)[C@H](CC(C)C)N(C)C(=O)[C@@H](C)NC(=O)[C@@H](CCC(N)=O)NC(=O)[C@H](CC(C)C)N(C)C(=O)[C@H](C(C)C)NC(=O)CN(CCOC)C(=O)CN(C)C1=O,67,
CCC[C@@H]1NC(=O)[C@H](CC(C)C)N(C)C(=O)[C@H](CC(C)C)N(C)C(=O)CN(Cc2ccccc2)C(=O)[C@H](CC(C)C)N(C)C(=O)[C@@H](C)NC(=O)[C@@H](CCC(N)=O)NC(=O)[C@H](CC(C)C)N(C)C(=O)[C@H](C(C)C)NC(=O)[C@H](CC(C)C)N(C)C(=O)CN(C)C1=O,62,
CCC[C@@H]1NC(=O)[C@H](CC(C)C)N(C)C(=O)[C@H](CC(C)C)N(C)C(=O)[C@H](CC(C)C)N(C)C(=O)CN(CC(C)C)C(=O)[C@@H](C)NC(=O)[C@@H](CCC(N)=O)NC(=O)[C@H](CC(C)C)N(C)C(=O)[C@H](C(C)C)NC(=O)[C@H](CC(C)C)N(C)C(=O)CN(C)C1=O,62,
CCC[C@@H]1NC(=O)[C@H](CC(C)C)N(C)C(=O)[C@H](CC(C)C)N(C)C(=O)[C@H](CC(C)C)N(C)C(=O)CN(CCC(=O)O)C(=O)[C@@H](C)NC(=O)[C@@H](CCC(N)=O)NC(=O)[C@H](CC(C)C)N(C)C(=O)[C@H](C(C)C)NC(=O)[C@H](CC(C)C)N(C)C(=O)CN(C)C1=O,84,CC50 at 24 h [2]: > 200 µM; IC50 (Hepatitis B virus [3]): 450 nM
CCC[C@@H]1NC(=O)[C@H](CC(C)C)N(C)C(=O)[C@H](CC(C)C)N(C)C(=O)[C@H](CC(C)C)N(C)C(=O)CN(CCOC)C(=O)[C@@H](C)NC(=O)[C@@H](CCC(N)=O)NC(=O)[C@H](CC(C)C)N(C)C(=O)[C@H](C(C)C)NC(=O)[C@H](CC(C)C)N(C)C(=O)CN(C)C1=O,72,
CCC[C@@H]1NC(=O)[C@H](CC(C)C)N(C)C(=O)[C@H](CC(C)C)N(C)C(=O)CN(CCCCN)C(=O)[C@H](CC(C)C)N(C)C(=O)[C@@H](C)NC(=O)[C@@H](CCC(N)=O)NC(=O)[C@H](CC(C)C)N(C)C(=O)[C@H](C(C)C)NC(=O)[C@H](CC(C)C)N(C)C(=O)CN(C)C1=O,57,
CCC[C@@H]1NC(=O)[C@H](CC(C)C)N(C)C(=O)[C@H](CC(C)C)N(C)C(=O)[C@H](CC(C)C)N(C)C(=O)[C@H](CC(C)C)N(C)C(=O)[C@@H](C)NC(=O)[C@@H](CCC(N)=O)NC(=O)[C@H](CC(C)C)N(C)C(=O)[C@H](C(C)C)NC(=O)CN(CCC(=O)O)C(=O)CN(C)C1=O,61,
CCC[C@@H]1NC(=O)[C@H](CC(C)C)N(C)C(=O)[C@H](CC(C)C)N(C)C(=O)[C@H](CC(C)C)N(C)C(=O)CN(CCCCN)C(=O)[C@@H](C)NC(=O)[C@@H](CCC(N)=O)NC(=O)[C@H](CC(C)C)N(C)C(=O)[C@H](C(C)C)NC(=O)[C@H](CC(C)C)N(C)C(=O)CN(C)C1=O,69,
CCC[C@@H]1NC(=O)[C@H](CC(C)C)N(C)C(=O)[C@H](C(C)C)N(C)C(=O)[C@H](CC(C)C)N(C)C(=O)[C@H](CC(C)C)N(C)C(=O)[C@@H](C)NC(=O)[C@H](C)NC(=O)[C@H](CC(C)C)N(C)C(=O)[C@H](C(C)C)NC(=O)[C@H](CC(C)C)N(C)C(=O)CN(C)C1=O (cyclo(A[dA][NMeL][NMeL][NMeV][NMeL][Nva][Sar][NMeL]V[NMeL])),75,CC50 at 24 h [2]: > 200 µM; IC50 (Hepatitis B virus [3]): 510 nM
CCC[C@@H]1NC(=O)[C@H](CC(C)C)N(C)C(=O)[C@H](CC(C)C)N(C)C(=O)[C@H](CC(C)C)N(C)C(=O)[C@H](CC(C)C)N(C)C(=O)[C@@H](C)NC(=O)[C@@H](CCC(N)=O)NC(=O)[C@H](CC(C)C)N(C)C(=O)[C@H](C(C)C)NC(=O)CN(CCO)C(=O)CN(C)C1=O,66,
CCC[C@@H]1NC(=O)[C@H](CC(C)C)N(C)C(=O)[C@H](CC(C)C)N(C)C(=O)[C@H](CC(C)C)N(C)C(=O)[C@H](CC(C)C)N(C)C(=O)[C@@H](C)NC(=O)[C@H](CCC(N)=O)NC(=O)[C@H](CC(C)C)N(C)C(=O)[C@H](C(C)C)NC(=O)CN(C)C(=O)CN(C)C1=O,86,IC50 (Hepatitis B virus [3]): 440 nM
CCC[C@@H]1NC(=O)[C@H](CC(C)C)N(C)C(=O)[C@H](CC(C)C)N(C)C(=O)[C@H](CC(C)C)N(C)C(=O)CN(C)C(=O)[C@@H](C)NC(=O)[C@@H](CCC(N)=O)NC(=O)[C@H](CC(C)C)N(C)C(=O)[C@H](C(C)C)NC(=O)[C@H](CC(C)C)N(C)C(=O)CN(C)C1=O,64,
O=c1cc(-c2ccccc2)oc2c1ccc1ccccc12 [ALPHA-NAPHTHOFLAVONE],,"inhibition at 20 min, 10 µM (CYP1A2): 97.1%"
CCC[C@@H]1NC(=O)[C@H](CC(C)C)N(C)C(=O)[C@H](CC(C)C)N(C)C(=O)CN(CC(C)C)C(=O)[C@H](CC(C)C)N(C)C(=O)[C@@H](C)NC(=O)[C@@H](CCC(N)=O)NC(=O)[C@H](CC(C)C)N(C)C(=O)[C@H](C(C)C)NC(=O)[C@H](CC(C)C)N(C)C(=O)CN(C)C1=O,65,
CCC[C@@H]1NC(=O)[C@H](CC(C)C)N(C)C(=O)[C@H](CC(C)C)N(C)C(=O)[C@H](CC(C)C)N(C)C(=O)CN(Cc2ccccc2)C(=O)[C@@H](C)NC(=O)[C@@H](CCC(N)=O)NC(=O)[C@H](CC(C)C)N(C)C(=O)[C@H](C(C)C)NC(=O)[C@H](CC(C)C)N(C)C(=O)CN(C)C1=O,69,
CCC[C@@H]1NC(=O)[C@H](CC(C)C)N(C)C(=O)[C@H](CC(C)C)N(C)C(=O)[C@H](CC(C)C)N(C)C(=O)CN(CCO)C(=O)[C@@H](C)NC(=O)[C@@H](CCC(N)=O)NC(=O)[C@H](CC(C)C)N(C)C(=O)[C@H](C(C)C)NC(=O)[C@H](CC(C)C)N(C)C(=O)CN(C)C1=O,59,
CCC[C@@H]1NC(=O)[C@H](CC(C)C)N(C)C(=O)[C@H](CC(C)C)N(C)C(=O)CN(CCOC)C(=O)[C@H](CC(C)C)N(C)C(=O)[C@@H](C)NC(=O)[C@@H](CCC(N)=O)NC(=O)[C@H](CC(C)C)N(C)C(=O)[C@H](C(C)C)NC(=O)[C@H](CC(C)C)N(C)C(=O)CN(C)C1=O,52,
CCC[C@@H]1NC(=O)[C@H](CC(C)C)N(C)C(=O)[C@H](CC(C)C)N(C)C(=O)[C@H](CC(C)C)N(C)C(=O)[C@H](CC(C)C)N(C)C(=O)[C@@H](C)NC(=O)[C@@H](CCC(N)=O)NC(=O)[C@H](CC(C)C)N(C)C(=O)[C@H](C(C)C)NC(=O)CN(CC(C)C)C(=O)CN(C)C1=O,85,IC50 (Hepatitis B virus [3]): 420 nM
CCC[C@@H]1NC(=O)[C@H](CC(C)C)N(C)C(=O)[C@H](CC(C)C)N(C)C(=O)[C@H](CC(C)C)N(C)C(=O)[C@H](CC(C)C)N(C)C(=O)[C@@H](C)NC(=O)[C@@H](CCC(N)=O)NC(=O)[C@H](CC(C)C)N(C)C(=O)[C@H](C(C)C)NC(=O)CN(CCCCN)C(=O)CN(C)C1=O,71,
C/C=C/C[C@@H](C)[C@@H](O)[C@H]1C(=O)N[C@@H](CC)C(=O)N(C)CC(=O)N(C)[C@@H](CC(C)C)C(=O)N[C@@H](C(C)C)C(=O)N(C)[C@@H](CC(C)C)C(=O)N[C@@H](C)C(=O)N[C@H](C)C(=O)N(C)[C@@H](CC(C)C)C(=O)N(C)[C@@H](CC(C)C)C(=O)N(C)[C@@H](C(C)C)C(=O)N1C [CYCLOSPORINE],83,IC50 (Hepatitis B virus [3]): 400 nM
CCC[C@@H]1NC(=O)[C@H](CC(C)C)N(C)C(=O)[C@H](CC(C)C)N(C)C(=O)CN(C)C(=O)[C@H](CC(C)C)N(C)C(=O)[C@@H](C)NC(=O)[C@@H](CCC(N)=O)NC(=O)[C@H](CC(C)C)N(C)C(=O)[C@H](C(C)C)NC(=O)[C@H](CC(C)C)N(C)C(=O)CN(C)C1=O,37,
CCC[C@@H]1NC(=O)[C@H](CC(C)C)N(C)C(=O)[C@H](C(C)C)N(C)C(=O)[C@H](CC(C)C)N(C)C(=O)[C@H](CC(C)C)N(C)C(=O)[C@@H](C)NC(=O)[C@@H](CCC(N)=O)NC(=O)[C@H](CC(C)C)N(C)C(=O)[C@H](C(C)C)NC(=O)[C@H](CC(C)C)N(C)C(=O)CN(C)C1=O,57,
Nc1ccc(S(=O)(=O)Nc2ccnn2-c2ccccc2)cc1 [SULFAPHENAZOLE],,"inhibition at 20 min, 10 µM (CYP2C9): 94.4%"
